This is an account of results in patent publication US5916892A, “Trans cyclopentanyl deazaadenyl analogs useful as immunosuppressants” (Hoechst Marion Roussel, Inc., priority 1997, dated 1999).

Structures can show the parent of a compound that is named as a salt.

The subject of assay [1] is Rat macrophage antigen presentation and the subsequent production of Interleukin-2. Put plainly: Regulation of macrophage antigen presentation (mBSA) to rat T-cell hybridoma, Interleukin-2 measured. It counts as cell-based, Lewis (LEW/N) rat. As for the experimental part:
Using the method of Ku (Cellular Immunology 130,(1990)) and a Lewis (LEW/N) rat T-cell hybridoma reactive with the protein methylated bovine serum albumin (mBSA), the ability of a compound of formula (1) to regulate M.phi. antigen presentation in vitro may be measured. Peritoneal macrophages obtained from LEW/N rats are plated into tissue culture and treated with 100 ug of mBSA and drug. A control is prepared similarly. After a period of 18 hours the cells are washed and incubated with the T-cell hybridoma for an additional 12 hours. Supernatants from these cultures are obtained and measured for content of Interleukin-2, a T-cell derived lymphokine which is produced by activated T-cells.

In assay [2] the test system is endotoxin-induced septic shock. Put plainly: Mouse endotoxin lethality model (D-galactosamine and LPS). The assay is classed as in vivo, CF1 mice. Particulars: 100 mg/kg i.p., pretreated at t=-1 hr; death observed over 8-72 hours. On the procedure: Using the method of Silverstein, (J. Exp. Med. 173, 357 (1991)) a mouse endotoxin lethality model may be used to determine if a compound of formula (1) has the ability to inhibit endotoxin-induced septic shock which is dependent on the production of Tumor Necrosis Factor-α (TNF-α). CF1 mice pretreated at time (t)=-1 hr with drug are challenged with 18 mg of D-glactoseamine and 50 ng of LPS, then observed for death over an 8-72 hour period.

In the case of `Nc1ncnc2c1ncn2[C@@H]1CC[C@@H](O)C1` [(1R,3R)-TRANS-1(9-ADENYL)CYCLOPENTAN-3-OL HYDROCHLORIDE], the “T-cell activation / antigen presentation and Interleukin-2 production (in words)” value in assay [1] (0.1 to 100 uM) is “inhibits T-cell activation”. This molecule showed an inhibition at 0.1 µM in assay [1] (Rattus norvegicus, Macrophage, In Vitro Concentration 0.1 uM, IL-2 production) of 7.6%. In assay [1] (Rattus norvegicus, Macrophage, In Vitro Concentration 1.0 uM, IL-2 production), this molecule came in with an inhibition at 1 µM of 30.9%. This molecule gave an inhibition at 10 µM in assay [1] (Rattus norvegicus, Macrophage, In Vitro Concentration 10.0 uM, IL-2 production) of 48.7%. In assay [1] (Rattus norvegicus, Macrophage, In Vitro Concentration 100.0 uM, IL-2 production), at 100 µM the inhibition was 55.3%. For the same molecule, in assay [2], the “protection against endotoxin lethality” value is on record as “protects against endotoxin lethality”.
